Results from patent US8008291B2 (Mimetica Pty Ltd, priority 2008, dated 2011).

Target: T1, human MC5R (hMC5R) (Homo sapiens, UniProt P33032)
T1 construct: purchased Perkin Elmer RBXMC5M400UA
Test: Human MC5R radioligand binding assay (membranes, [125I] NDP-MSH displacement)
Details: hMC5R binding; tested as trifluoroacetate or hydrochloride salts, or free bases; read-out: MC5R radioligand IC50
How it was run: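 Displacement of [125I]NDP-MSH (radioiodinated in house, HPLC-purified) from hMC5R membranes by test compound measured after 1 hr incubation at 37° C.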

T1 sequence (P33032 whole entry): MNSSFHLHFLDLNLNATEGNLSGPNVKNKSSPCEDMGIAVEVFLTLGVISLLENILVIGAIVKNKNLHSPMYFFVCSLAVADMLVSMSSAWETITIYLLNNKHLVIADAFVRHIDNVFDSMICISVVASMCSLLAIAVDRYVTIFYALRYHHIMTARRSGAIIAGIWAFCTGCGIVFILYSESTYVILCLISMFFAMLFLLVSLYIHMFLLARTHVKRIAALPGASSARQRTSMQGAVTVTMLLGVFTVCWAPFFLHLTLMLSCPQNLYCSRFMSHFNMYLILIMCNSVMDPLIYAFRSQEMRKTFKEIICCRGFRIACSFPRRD

`CCC(CC)CN1CC[C@@H](CNC(=O)c2ccc3cc(Cl)ccc3c2)N[C@@H](CCN2CCCCC2)C1=O` [Compound 373, 6-chloro-N-(((3S,5S)-1-(2-ethylbutyl)-2-oxo-3-(2-(piperidin-1-yl)ethyl)-1,4-diazepan-5-yl)methyl)-2-naphthamide] and `CCC(CC)CN1CC[C@@H](CNC(=O)c2ccc3cc(Br)ccc3c2)N[C@@H](CCN2CCCCC2)C1=O` [Compound 374, 6-bromo-N-(((3S,5S)-1-(2-ethylbutyl)-2-oxo-3-(2-(piperidin-1-yl)ethyl)-1,4-diazepan-5-yl)methyl)-2-naphthamide] cannot be ordered by IC50: less than 100 nM for the first, less than 100 nM for the second.

`CC1CC(C)CC(CN2CC[C@@H](CNC(=O)c3ccc(Cl)c(Cl)c3)N[C@@H](CCN)C2=O)C1` (stereo partly drawn) [Compound 375, N-(((3S,5S)-3-(2-aminoethyl)-1-((3,5-dimethylcyclohexyl)methyl)-2-oxo-1,4-diazepan-5-yl)methyl)-3,4-dichlorobenzamide] and `CC1CC(C)CC(CN2CC[C@@H](CNC(=O)c3ccc(Cl)c(Cl)c3)N[C@@H](CCNC(C)C)C2=O)C1` (stereo partly drawn) [Compound 387, 3,4-dichloro-N-(((3S,5S)-1-((3,5-dimethylcyclohexyl)methyl)-3-(2-(isopropylamino)ethyl)-2-oxo-1,4-diazepan-5-yl)methyl)benzamide] cannot be ordered by IC50: less than 1000 nM for the first, less than 1000 nM for the second.

`CC1CC(C)CC(CN2CC[C@@H](CNC(=O)c3ccc4ccccc4c3)N[C@@H](CCN)C2=O)C1` (stereo partly drawn) [Compound 376, N-(((3S,5S)-3-(2-aminoethyl)-1-((3,5-dimethylcyclohexyl)methyl)-2-oxo-1,4-diazepan-5-yl)methyl)-2-naphthamide] and `CC1CCCC(C)C1CN1CC[C@@H](CNC(=O)c2ccc3ccccc3c2)N[C@@H](CCCN)C1=O` (stereo partly drawn) [Compound 384, N-(((3S,5S)-3-(3-aminopropyl)-1-((2,6-dimethylcyclohexyl)methyl)-2-oxo-1,4-diazepan-5-yl)methyl)-2-naphthamide] cannot be ordered by IC50: less than 1000 nM for the first, less than 10000 nM for the second.

`CC1CC(C)CC(CN2CC[C@@H](CNC(=O)/C=C/c3ccc(Cl)cc3)N[C@@H](CCN)C2=O)C1` (stereo partly drawn) [Compound 377, (E)-N-(((3S,5S)-3-(2-aminoethyl)-1-((3,5-dimethylcyclohexyl)methyl)-2-oxo-1,4-diazepan-5-yl)methyl)-3-(4-chlorophenyl)acrylamide] and `CC1CC(C)CC(CN2CC[C@@H](CNC(=O)c3ccc(Cl)c(Cl)c3)N[C@@H](CCN3CCCCC3)C2=O)C1` (stereo partly drawn) [Compound 386, 3,4-dichloro-N-(((3S,5S)-1-((3,5-dimethylcyclohexyl)methyl)-2-oxo-3-(2-(piperidin-1-yl)ethyl)-1,4-diazepan-5-yl)methyl)benzamide] cannot be ordered by IC50: less than 1000 nM for the first, less than 100 nM for the second.

`O=C(NC[C@@H]1CCN(CC(c2ccccc2)c2ccccc2)C(=O)[C@H](CCN2CCCCC2)N1)c1ccc2cc(Cl)ccc2c1` [Compound 378, 6-chloro-N-(((3S,5S)-1-(2,2-diphenylethyl)-2-oxo-3-(2-(piperidin-1-yl)ethyl)-1,4-diazepan-5-yl)methyl)-2-naphthamide] and `O=C(NC[C@@H]1CCN(CC(c2ccccc2)c2ccccc2)C(=O)[C@H](CCN2CCCCC2)N1)c1ccc2cc(F)ccc2c1` [Compound 379, N-(((3S,5S)-1-(2,2-diphenylethyl)-2-oxo-3-(2-(piperidin-1-yl)ethyl)-1,4-diazepan-5-yl)methyl)-6-fluoro-2-naphthamide] cannot be ordered by IC50: less than 10 nM for the first, less than 10 nM for the second.

`O=C(/C=C/c1ccc(Cl)cc1)NC[C@@H]1CCN(CC(c2ccccc2)c2ccccc2)C(=O)[C@H](CCN2CCCC2)N1` [Compound 380, (E)-3-(4-chlorophenyl)-N-(((3S,5S)-1-(2,2-diphenylethyl)-2-oxo-3-(2-(pyrrolidin-1-yl)ethyl)-1,4-diazepan-5-yl)methyl)acrylamide] and `O=C(CCc1ccc(Cl)cc1)NC[C@@H]1CCN(CC(c2ccccc2)c2ccccc2)C(=O)[C@H](CCN2CCCCC2)N1` [Compound 391, 3-(4-chlorophenyl)-N-(((3S,5S)-1-(2,2-diphenylethyl)-2-oxo-3-(2-(piperidin-1-yl)ethyl)-1,4-diazepan-5-yl)methyl)propanamide] cannot be ordered by IC50: less than 100 nM for the first, less than 100 nM for the second.

`CC(C)NCC[C@@H]1N[C@H](CNC(=O)/C=C/c2ccc(Cl)cc2)CCN(CC(c2ccccc2)c2ccccc2)C1=O` [Compound 381, (E)-3-(4-chlorophenyl)-N-(((3S,5S)-1-(2,2-diphenylethyl)-3-(2-(isopropylamino)ethyl)-2-oxo-1,4-diazepan-5-yl)methyl)acrylamide] and `CC(C)NCC[C@@H]1N[C@H](CNC(=O)c2ccc(Cl)c(Cl)c2)CCN(CC(c2ccccc2)c2ccccc2)C1=O` [Compound 383, 3,4-dichloro-N-(((3S,5S)-1-(2,2-diphenylethyl)-3-(2-(isopropylamino)ethyl)-2-oxo-1,4-diazepan-5-yl)methyl)benzamide] cannot be ordered by IC50: less than 100 nM for the first, less than 1000 nM for the second.

`CC(C)NCC[C@@H]1N[C@H](CNC(=O)c2ccc3ccccc3c2)CCN(CC(c2ccccc2)c2ccccc2)C1=O` [Compound 382, N-(((3S,5S)-1-(2,2-diphenylethyl)-3-(2-(isopropylamino)ethyl)-2-oxo-1,4-diazepan-5-yl)methyl)-2-naphthamide] and `CC(C)C(CN1CC[C@@H](CNC(=O)c2ccc3ccccc3c2)N[C@@H](CCN)C1=O)c1ccccc1` (stereo partly drawn) [Compound 388, N-(((3S,5S)-3-(2-aminoethyl)-1-(3-methyl-2-phenylbutyl)-2-oxo-1,4-diazepan-5-yl)methyl)-2-naphthamide] cannot be ordered by IC50: less than 1000 nM for the first, less than 10000 nM for the second.

`CC[C@H](CN1CC[C@@H](CNC(=O)c2ccc3ccccc3c2)N[C@@H](CCCN)C1=O)c1ccccc1` [Compound 385, N-(((3S,5S)-3-(3-aminopropyl)-2-oxo-1-((S)-2-phenylbutyl)-1,4-diazepan-5-yl)methyl)-2-naphthamide] and `CC[C@@H](CN1CC[C@@H](CNC(=O)c2ccc3ccccc3c2)N[C@@H](CCCN)C1=O)c1ccccc1` [Compound 390, N-(((3S,5S)-3-(3-aminopropyl)-2-oxo-1-((R)-2-phenylbutyl)-1,4-diazepan-5-yl)methyl)-2-naphthamide] cannot be ordered by IC50: less than 1000 nM for the first, less than 10000 nM for the second.

`CC[C@H](CN1CC[C@@H](CNC(=O)c2ccc3ccccc3c2)N[C@@H](CCN)C1=O)c1ccccc1` [Compound 389, N-(((3S,5S)-3-(2-aminoethyl)-2-oxo-1-((S)-2-phenylbutyl)-1,4-diazepan-5-yl)methyl)-2-naphthamide] and `CC(C)[C@@H](CN1CC[C@@H](CNC(=O)c2ccc3ccccc3c2)N[C@@H](CCN2CCCCC2)C1=O)c1ccccc1` [Compound 394, N-(((3S,5S)-1-((R)-3-methyl-2-phenylbutyl)-2-oxo-3-(2-(piperidin-1-yl)ethyl)-1,4-diazepan-5-yl)methyl)-2-naphthamide] cannot be ordered by IC50: less than 1000 nM for the first, less than 1000 nM for the second.

`NCC[C@@H]1N[C@H](CNC(=O)CCc2ccc(Cl)cc2)CCN(CC(c2ccccc2)c2ccccc2)C1=O` [Compound 392, N-(((3S,5S)-3-(2-aminoethyl)-1-(2,2-diphenylethyl)-2-oxo-1,4-diazepan-5-yl)methyl)-3-(4-chlorophenyl)propanamide] and `O=C(/C=C/c1ccc(Cl)cc1)NC[C@@H]1CCN(CC(c2ccccc2)c2ccccc2)C(=O)[C@H](CNC(=O)c2ccccn2)N1` [Compound 393, N-(((2S,7S)-7-(((E)-3-(4-chlorophenyl)acrylamido)methyl)-4-(2,2-diphenylethyl)-3-oxo-1,4-diazepan-2-yl)methyl)picolinamide] cannot be ordered by IC50: less than 10000 nM for the first, less than 10000 nM for the second.
